The source of these data is patent US4156730A, “Pharmaceutically active compounds, preparation thereof, intermediates useful in such preparation and compositions containing the compounds” (Beecham Group Limited, priority 1976, dated 1979).

This assay concerns 5-hydroxytryptamine induced bronchoconstriction. Kind of assay: inhibition of 5-hydroxytryptamine induced bronchoconstriction (Konzett-Rossler preparation). Type of assay: in vivo. As to conditions: Cavia porcellus, iv; intravenously; anaesthetised, artificially respired guinea pig; read-out: IC50 for inhibition of bronchoconstriction. The text has this:
The compounds were examined for their ability to inhibit 5-hydroxytryptamine induced bronchoconstriction in the anaesthetised, artifically respired guinea pig (Konzett-Rossler preparation - ref: H. Konzett and R. Rossler, 1940, Arch. exp. Path. Pharmak., 195, 71).

Take `CCCCC(C)(O)CCCCN1C(=O)CC(=O)C1CCCCCCC(=O)OC` (stereo not shown) [Compound 30, 2-(6'-Methoxycarbonyl-n-hexyl)-1-(5"-hydroxy-5"-methyl-n-nonyl)-pyrrolidin-3,5-dione]: the ED50 was found to be 0.012 mg/kg.
